# Experimental data taken from ChEMBL document CHEMBL2412996, “Increase of anti-HIV activity of C-peptide fusion inhibitors using a bivalent drug design approach” (Bioorg Med Chem Lett, 2013).
# Square brackets hold non-standard residues; d marks the D form. Peptide text beside a SMILES is read from it. Ahx = NCCCCCC(=O)O
# Columns and labels:
# Type in all cases: cell-based
# TZM-bl [1] = assay: Inhibition of HIV1 HXB2 gp160-mediated cell-cell fusion between viral envelope expressing human HL2/3 cells to human TZM-bl cells expressing CD4, tat, and rev by luciferase reporter gene assay relative to SC22EK; settings: Human immunodeficiency virus 1
# [2] = Inhibition of HIV1 HXB2 gp160-mediated cell-cell fusion between viral envelope expressing human HL2/3 cells to human TZM-bl cells expressing CD4, tat, and rev by luciferase reporter gene assay; settings: Human immunodeficiency virus 1, HXB2, TZM-bl
# TZM-bl [3] = assay: Inhibition of HIV1 HXB2 gp160-mediated cell-cell fusion between viral envelope expressing human HL2/3 cells to human TZM-bl cells expressing CD4, tat, and rev by luciferase reporter gene assay relative to C22; settings: Human immunodeficiency virus 1
Compound,Ratio (TZM-bl [1]),IC50 [2],Ratio (TZM-bl [3])
CC[C@H](C)[C@H](NC(=O)[C@H](CC(C)C)NC(=O)[C@H](CCC(=O)O)NC(=O)[C@H](CCC(=O)O)NC(=O)[C@@H](NC(=O)[C@H](CCCCN)NC(=O)[C@H](CCCCN)NC(=O)[C@@H](NC(=O)[C@H](Cc1ccc(O)cc1)NC(=O)[C@H](CCC(=O)O)NC(=O)[C@H](CCC(=O)O)NC(=O)[C@@H](NC(=O)[C@H](CCCCN)NC(=O)[C@H](CCCCN)NC(=O)[C@H](CC(=O)O)NC(=O)[C@H](Cc1c[nH]c2ccccc12)NC(=O)[C@H](CCC(=O)O)NC(=O)[C@H](CCC(=O)O)NC(=O)[C@H](Cc1c[nH]c2ccccc12)NC(=O)CCCCCNC(=O)[C@H](CS)NC(C)=O)[C@@H](C)CC)[C@@H](C)O)[C@@H](C)CC)C(=O)N[C@@H](CCCCN)C(=O)N[C@@H](CCCCN)C(=O)N[C@@H](CO)C(=O)O (Ac-C[Ahx]WEEWDKKIEEYTKKIEELIKKS-OH),8.97,38.6 nM,–
CC[C@H](C)[C@H](NC(=O)[C@H](CC(C)C)NC(=O)[C@H](CO)NC(=O)[C@H](Cc1cnc[nH]1)NC(=O)[C@@H](NC(=O)[C@H](CC(C)C)NC(=O)[C@H](CO)NC(=O)[C@@H](NC(=O)[C@H](Cc1ccc(O)cc1)NC(=O)[C@H](CC(N)=O)NC(=O)[C@H](CC(N)=O)NC(=O)[C@@H](NC(=O)[C@H](CCC(=O)O)NC(=O)[C@H](CCCNC(=N)N)NC(=O)[C@H](CC(=O)O)NC(=O)[C@H](Cc1c[nH]c2ccccc12)NC(=O)[C@H](CCC(=O)O)NC(=O)[C@H](CCSC)NC(=O)[C@H](Cc1c[nH]c2ccccc12)NC(=O)CCCCCNC(=O)[C@H](CS)NC(C)=O)[C@@H](C)CC)[C@@H](C)O)[C@@H](C)CC)C(=O)N[C@@H](CCC(=O)O)C(=O)N[C@@H](CCC(=O)O)C(=O)N[C@@H](CO)C(=O)O (Ac-C[Ahx]WMEWDREINNYTSLIHSLIEES-OH),–,561 nM,2.21
